According to patent US4440779A, “Tricyclic derivatives of substituted pyrrole acids as analgesic and anti-inflammatory agents” (Merck & Co., Inc., priority 1982, dated 1984):

Legend:
[1] = system: edema induced by carragenin in rat foot; assay: rat foot edema assay (carragenin-induced edema, C.F.E.); format: in vivo, rat (Sprague Dawley); settings: 1 h before carragenin, read at 3 h; for inhibition in vivo at 3 mg/kg: 3 mg/kg oral; for inhibition in vivo at 10 mg/kg: 10 mg/kg oral; for inhibition in vivo at 20 mg/kg: 20 mg/kg oral; for inhibition in vivo at 30 mg/kg: 30 mg/kg oral
Method: The rat foot edema assay for determining anti-inflammatory activity is based on the ability of the compounds of Formula I to inhibit the edema induced by the injection of an inflammatory (phlogistic) agent into the tissues of the foot of a rat. Several groups of six male rats (Sprague Dawley strain, 150±30 g each) are given orally the compounds to be tested one hour before 0.1 ml of a 1% suspension of carragenin in 0.5% methocel is injected into the planar surface of each rat's right hind paws. Immediately and again three hours later, the foot volume is measured and recorded. The difference between the initial and final volumes is a measurement of the edema produced. Usually the compounds to be tested are suspended or dissolved in 0.5% methocel, and their activities measured against that produced by a known anti-inflammatory agent e.g., zomepirac (U.S. Pat. No. 3,952,012) according to standard procedure. The activity of a tested compound is also compared with that produced by a "control" rat which receives only the methocel solution. A test of 3 mg/kg, 10 mg/kg plus one dose of 30 mg/kg are usually given.

gastric mucosa = assay: Gastric Hemorrhage Lesion Formation Assay (GHLF); format: in vivo, rat (Sprague-Dawley); settings: fasted, 4 h
Method: In other words, they induce less gastric irritation than Zompirac. The GHLF test is conducted according to the following procedure:
Rats (Sprague-Dawley, Males, 120-180 gm) are fasted overnight and dosed orally with drug suspended in 0.5% methylcellulose. The drug concentration is adjusted so that each animal received 1.0 ml/100 gm body weight. Four hours later the animals are killed by asphixiation in carbon dioxide, the stomachs removed, cut open and everted. The mucosal lining is washed and examined under 3X magnification. The lesions are identified as perforations of the gastric mucosa, many of which perforate right through the wall of the stomach.
The results are expressed in two ways, the average number of lesions per stomach, and the number of animals in the group showing at least one lesion.

Row | Animals with lesions (gastric mucosa; 90 mg/kg oral) | Ave. lesions per animal (gastric mucosa; 90 mg/kg oral) | Compound | inhibition in vivo at 3 mg/kg [1] | inhibition in vivo at 10 mg/kg [1] | inhibition in vivo at 20 mg/kg [1] | inhibition in vivo at 30 mg/kg [1] | also measured
1 | 2/6 | 0.33 | Cc1ccc2c(c1)OCc1cc(CC(=O)O)n(C)c1C2=O [7-CH3 / OCH2 / H, 1,7-dimethyl-4,10-dihydro-10-oxo-1H[1]benzoxepino[4,3-b]-pyrrole-2-acetic acid] | 32.1% | 39.9% | 42.6% | – | Animals with lesions (gastric mucosa; 30 mg/kg oral): 0/6; Ave. lesions per animal (gastric mucosa; 30 mg/kg oral): 0; Animals with lesions (gastric mucosa; 60 mg/kg oral): 1/6; Ave. lesions per animal (gastric mucosa; 60 mg/kg oral): 0.16; Animals with lesions (gastric mucosa; 120 mg/kg oral): 4/6; Ave. lesions per animal (gastric mucosa; 120 mg/kg oral): 3.3
2 | – | – | CC(C(=O)O)c1cc2c(n1C)C(=O)c1ccc(Cl)cc1CC2 (stereo not drawn) [7-Cl / CH2CH2 / CH3, 1,4,5,10-Tetrahydro-7-chloro-1,α-dimethyl-10-oxobenzocyclohepta[1,2-b]pyrrole-2-acetic acid] | – | – | 36.8% | 59% | –
3 | – | – | Cn1c(CC(=O)O)cc2c1C(=O)c1ccc(Cl)cc1CC2 [7-Cl / CH2CH2 / H] | 29.9% | 41.5% | – | 57.5% | Animals with lesions (gastric mucosa; 100 mg/kg oral): 1/5; Ave. lesions per animal (gastric mucosa; 100 mg/kg oral): 0.2; Animals with lesions (gastric mucosa; 300 mg/kg oral): 0/5; Ave. lesions per animal (gastric mucosa; 300 mg/kg oral): 0; Animals with lesions (gastric mucosa; 600 mg/kg oral): 4/5; Ave. lesions per animal (gastric mucosa; 600 mg/kg oral): 1.8
4 | – | – | Cn1c(CC(=O)O)cc2c1C(=O)c1ccc(Cl)cc1CO2 [7-Cl / CH2O / H] | – | – | 50% | – | –
5 | – | – | CC(C(=O)O)c1cc2c(n1C)C(=O)c1ccc(Cl)cc1OC2 (stereo not shown) [7-Cl / OCH2 / CH3] | – | – | – | 60% | –
6 | 5/6 | 5.0 | Cn1c(CC(=O)O)cc2c1C(=O)c1ccc(Cl)cc1OC2 [7-Cl / OCH2 / H, 7-chloro-4,10-dihydro-1-methyl-10-oxo-1H-[1]benzoxepino[4,3-b]pyrrole-2-acetic acid] | 46% | 64% | – | 54% | Animals with lesions (gastric mucosa; 60 mg/kg oral): 0/6; Ave. lesions per animal (gastric mucosa; 60 mg/kg oral): 0
7 | – | – | Cn1c(CC(=O)O)cc2c1C(=O)c1ccc(Cl)cc1SC2 [7-Cl / SCH2 / H, 7-Chloro-4,10-dihydro-1-methyl-10-oxo-1H-[1]benzothiepino[4,3-b]pyrrole-2-acetic acid] | – | – | – | 51% | –
8 | – | – | Cn1c(CC(=O)O)cc2c1C(=O)c1ccc(F)cc1OC2 [7-F / OCH2 / H] | – | 31% | – | 40% | –
9 | 2/6 | 1.0 | COc1ccc2c(c1)OCc1cc(CC(=O)O)n(C)c1C2=O [7-OCH3 / OCH2 / H, 7-methoxy-4,10-dihydro-1-methyl-10-oxo-1H[1]-benzoxepino[4,3-b]pyrrole-2-acetic acid] | 44% | – | – | 61% | Animals with lesions (gastric mucosa; 120 mg/kg oral): 4/6; Ave. lesions per animal (gastric mucosa; 120 mg/kg oral): 4.0
